From the supplement of paper PMC4862054
Blank lines part the entries; values can stand above or below the molecule they belong to.

Key:
Conditions in all cases: 72 h
[1] = system: MDA-MB-231
Procedure: (§1)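 Drug sensitivity and resistance testing (DSRT) of breast cancer cell lines in 384-well plates, 5 concentrations in 10-fold dilutions over a compound-specific 10,000-fold range. After 72 h, cytotoxicity was read by CellTox Green fluorescence and viability by CellTiter-Glo luminescence (multiplexed), normalised to DMSO and benzethonium chloride controls. EC50 is the inflection point of the fitted dose-response curve (bottom asymptote free, so it can be relative for partial curves) and is censored at the highest tested concentration. Rows with DSS 0 (no meaningful response) were excluded.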

[2] = system: MCF-10A
Procedure: as §1

[3] = system: CAL-85-1
Procedure: as §1

[4] = system: CAL-120
Procedure: as §1

[5] = system: DU-4475
Procedure: as §1

[6] = system: Hs578T
In short: (§2)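 The plates used were 384-well plates holding compound at 5 concentrations in 10-fold steps across a compound-specific 10,000-fold range, into which breast cancer cell lines were seeded in 20 µl suspension. Following 72 h incubation, CellTox Green fluorescence was read at 485/520 nm, and CellTiter-Glo luminescence was read after 10 min at room temperature. Normalisation on each plate used 0.1 % DMSO and a positive kill control. Dose-response curves gave the EC50, which was censored at the top concentration.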

[7] = system: MDA-MB-231; remark: listed apart in the source
In short: as §2

[8] = system: MCF-10A; remark: listed apart in the source
In short: as §2

[9] = system: CAL-85-1; remark: listed apart in the source
In short: as §2

[10] = system: BT-474
In short: as §2

[11] = system: MFM-223
In short: as §2

[12] = system: CAL-120; remark: listed apart in the source
In short: as §2

[13] = system: MDA-MB-436
In short: as §2

[14] = system: DU-4475; remark: listed apart in the source
In short: as §2

[15] = system: HDQ-P1
In short: as §2

[16] = system: HCC1937
In short: as §2

[17] = system: CAL-51
Procedure: as §1

[18] = system: HDQ-P1; remark: listed apart in the source
Procedure: as §1

[19] = system: MDA-MB-453
Procedure: as §1

[20] = system: CAL-51; remark: listed apart in the source
In short: as §2

[21] = system: SK-BR-3
In short: as §2

[22] = system: MDA-MB-453; remark: listed apart in the source
In short: as §2

[23] = system: BT-549
Procedure: as §1

[24] = system: BT-474; remark: listed apart in the source
Procedure: as §1

[25] = system: MFM-223; remark: listed apart in the source
Procedure: as §1

[26] = system: MDA-MB-468
Procedure: as §1

[27] = system: CAL-148
Procedure: as §1

[28] = system: MDA-MB-436; remark: listed apart in the source
Procedure: as §1

[29] = system: HCC1599
Procedure: as §1

[30] = system: HCC1937; remark: listed apart in the source
Procedure: as §1

[31] = system: BT-549; remark: listed apart in the source
In short: as §2

[32] = system: HCC1143
In short: as §2

[33] = system: MDA-MB-468; remark: listed apart in the source
In short: as §2

[34] = system: CAL-148; remark: listed apart in the source
In short: as §2

[35] = system: HCC1599; remark: listed apart in the source
In short: as §2

[36] = system: Hs578T; remark: listed apart in the source
In short: (§3)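 Rows with a drug sensitivity score of zero were dropped, and EC50 was taken from the fitted percent-inhibition dose-response curve, censored at the highest concentration. Data were normalised on each plate to vehicle and a positive kill control and checked by Z'-factor. The assay seeded breast cancer cell lines in 20 µl onto 384-well plates pre-loaded with compound in 5 µl medium for 72 h, then added 2.5 µl CellTiter-Blue for 2 h at 37 °C and read fluorescence at 560/590 nm.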

[37] = system: MDA-MB-231; remark: listed apart in the source
In short: as §3

[38] = system: BT-549; remark: listed apart in the source
In short: as §3

[39] = system: BT-474; remark: listed apart in the source
In short: as §3

[40] = system: MFM-223; remark: listed apart in the source
In short: as §3

[41] = system: HCC1143; remark: listed apart in the source
In short: as §3

[42] = system: MDA-MB-468; remark: listed apart in the source
In short: as §3

[43] = system: CAL-120; remark: listed apart in the source
In short: as §3

[44] = system: MDA-MB-436; remark: listed apart in the source
In short: as §3

[45] = system: HCC1599; remark: listed apart in the source
In short: as §3

[46] = system: SK-BR-3; remark: listed apart in the source
In short: as §3

[47] = system: HCC1937; remark: listed apart in the source
In short: as §3

[48] = system: Hs578T; remark: listed apart in the source
Procedure: as §1

[49] = system: CAL-85-1; remark: listed apart in the source
In short: as §3

[50] = system: CAL-51; remark: listed apart in the source
In short: as §3

[51] = system: CAL-148; remark: listed apart in the source
In short: as §3

[52] = system: DU-4475; remark: listed apart in the source
In short: as §3

[53] = system: HDQ-P1; remark: listed apart in the source
In short: as §3

[54] = system: MDA-MB-453; remark: listed apart in the source
In short: as §3

EC50, CellTiter-Glo [7]: 0.00645 µM
EC50, CellTiter-Glo [10]: 0.0147 µM
EC50, CellTiter-Glo [13]: 0.067 µM
EC50, CellTiter-Glo [16]: 0.172 µM
Structure (SMILES): CC(=O)Nc1cccc(-n2c(=O)n(C3CC3)c(=O)c3c(Nc4ccc(I)cc4F)n(C)c(=O)c(C)c32)c1 [Trametinib]
EC50, CellTox Green [1]: 0.0004 µM
EC50, CellTox Green [2]: 0.0792 µM
EC50, CellTox Green [3]: 0.0715 µM
EC50, CellTox Green [4]: 0.0454 µM
EC50, CellTox Green [5]: 0.00232 µM
EC50, CellTiter-Glo [6]: 0.137 µM
EC50, CellTiter-Glo [8]: 0.00071 µM
EC50, CellTiter-Glo [9]: 0.0211 µM
EC50, CellTiter-Glo [11]: 0.0532 µM
EC50, CellTiter-Glo [12]: 0.0162 µM
EC50, CellTiter-Glo [14]: 0.00137 µM
EC50, CellTiter-Glo [15]: 0.0017 µM

EC50, CellTiter-Glo [21]: 0.0119 µM
EC50, CellTiter-Glo [22]: 0.0105 µM
Structure (SMILES): C=CC(=O)N1CCC[C@@H](n2nc(-c3ccc(Oc4ccccc4)cc3)c3c(N)ncnc32)C1 [Ibrutinib]
EC50, CellTox Green [3]: 0.416 µM
EC50, CellTox Green [17]: > 1 µM
EC50, CellTox Green [18]: > 1 µM
EC50, CellTox Green [19]: 0.943 µM
EC50, CellTiter-Glo [8]: 0.198 µM
EC50, CellTiter-Glo [9]: 0.493 µM
EC50, CellTiter-Glo [20]: 0.415 µM
EC50, CellTiter-Glo [15]: 0.168 µM

EC50, CellTiter-Glo [7]: 2.54 µM
EC50, CellTiter-Glo [31]: 2.53 µM
EC50, CellTiter-Glo [10]: 2.66 µM
EC50, CellTiter-Glo [32]: 2.38 µM
EC50, CellTiter-Glo [33]: 1.95 µM
EC50, CellTiter-Glo [13]: 2.51 µM
EC50, CellTiter-Glo [35]: 2.79 µM
EC50, CellTiter-Glo [21]: 2.27 µM
EC50, CellTiter-Glo [22]: 2.4 µM
EC50, CellTiter-Glo [16]: 3.46 µM
Structure (SMILES): COc1cc2c(NC3CCN(C(C)C)CC3)nc(C3CCCCC3)nc2cc1OCCCN1CCCC1 [UNC0638]
EC50, CellTox Green [1]: 1.65 µM
EC50, CellTox Green [2]: 2.23 µM
EC50, CellTox Green [23]: 2.1 µM
EC50, CellTox Green [3]: 2.44 µM
EC50, CellTox Green [24]: 2.2 µM
EC50, CellTox Green [25]: 2.92 µM
EC50, CellTox Green [17]: 1.65 µM
EC50, CellTox Green [26]: 2.38 µM
EC50, CellTox Green [27]: 2.73 µM
EC50, CellTox Green [4]: 2.44 µM
EC50, CellTox Green [28]: 4.24 µM
EC50, CellTox Green [29]: 1.44 µM
EC50, CellTox Green [18]: 4.72 µM
EC50, CellTox Green [19]: 2.52 µM
EC50, CellTox Green [30]: 2.14 µM
EC50, CellTiter-Glo [8]: 1.88 µM
EC50, CellTiter-Glo [9]: 3.52 µM
EC50, CellTiter-Glo [11]: 2.27 µM
EC50, CellTiter-Glo [20]: 1.66 µM
EC50, CellTiter-Glo [34]: 2.51 µM
EC50, CellTiter-Glo [12]: 2.72 µM
EC50, CellTiter-Glo [14]: 1.65 µM
EC50, CellTiter-Glo [15]: 5.25 µM

EC50, CellTiter-Blue viability [37]: 1.82 µM
EC50, CellTiter-Blue viability [38]: 2.48 µM
EC50, CellTiter-Blue viability [39]: 0.11 µM
EC50, CellTiter-Blue viability [41]: 4.17 µM
EC50, CellTiter-Blue viability [42]: 0.571 µM
EC50, CellTiter-Blue viability [44]: 0.811 µM
EC50, CellTiter-Blue viability [45]: 9.08 µM
EC50, CellTiter-Blue viability [46]: 0.0166 µM
EC50, CellTiter-Blue viability [47]: 2.25 µM
EC50, CellTiter-Blue viability [54]: 0.243 µM
EC50, CellTiter-Glo [7]: 1.63 µM
EC50, CellTiter-Glo [31]: 2.11 µM
EC50, CellTiter-Glo [10]: 2.6 µM
EC50, CellTiter-Glo [32]: 4.71 µM
EC50, CellTiter-Glo [33]: 1.12 µM
EC50, CellTiter-Glo [13]: 4.37 µM
EC50, CellTiter-Glo [35]: 0.586 µM
EC50, CellTiter-Glo [21]: 0.0488 µM
EC50, CellTiter-Glo [22]: 3.02 µM
EC50, CellTiter-Glo [16]: 3.34 µM
Structure (SMILES): C=CC(=O)Nc1cc2c(Nc3ccc(F)c(Cl)c3)ncnc2cc1OCCCN1CCOCC1 [Canertinib]
EC50, CellTiter-Blue viability [36]: 3.7 µM
EC50, CellTiter-Blue viability [40]: 3.02 µM
EC50, CellTiter-Blue viability [43]: 1.72 µM
EC50, CellTox Green [48]: 2.85 µM
EC50, CellTox Green [1]: 4.92 µM
EC50, CellTox Green [2]: 1.69 µM
EC50, CellTox Green [23]: 9.07 µM
EC50, CellTox Green [3]: 1.62 µM
EC50, CellTox Green [24]: 9.8 µM
EC50, CellTox Green [25]: 6.74 µM
EC50, CellTox Green [17]: 3.01 µM
EC50, CellTox Green [26]: 3.21 µM
EC50, CellTox Green [4]: 6.66 µM
EC50, CellTox Green [18]: 3.47 µM
EC50, CellTiter-Blue viability [49]: 0.361 µM
EC50, CellTiter-Blue viability [50]: 4.69 µM
EC50, CellTiter-Blue viability [51]: 3.37 µM
EC50, CellTiter-Blue viability [52]: 5.98 µM
EC50, CellTiter-Blue viability [53]: 0.448 µM
EC50, CellTiter-Glo [6]: 5.45 µM
EC50, CellTiter-Glo [8]: 0.106 µM
EC50, CellTiter-Glo [9]: 0.595 µM
EC50, CellTiter-Glo [11]: 5.5 µM
EC50, CellTiter-Glo [20]: 0.573 µM
EC50, CellTiter-Glo [34]: 1.39 µM
EC50, CellTiter-Glo [12]: 5.39 µM
EC50, CellTiter-Glo [14]: 8.21 µM
EC50, CellTiter-Glo [15]: 0.93 µM
